Several values for one entry are separate records, joined by “and”; a condition that tells them apart may be missing. Equal values may be shown once.
Assays:
[1] = tested on: Boll Weevil; assay: Field trial (first summer), topical; format: in vivo, Anthonomus grandis
Outline: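 Field trial from the first summer in which 1 µl of test solution holding a set number of micrograms of benzimidazole was applied topically to larvae or adult insects. Mortality at a given route and concentration was scored on a 0–9 scale.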

[2] = tested on: Melon Aphid; assay: Melon Aphid Test; format: in vivo, Aphis gossypii (Hemiptera); settings: 24 h
Excerpt: Four blue hubbard squash seeds are planted per container in vermiculite and the containers watered from the bottom. After 6 days, the two weakest plants are cut off and one cotyledon and the primary leaves are removed from each of the two remaining plants. The remaining cotyledon is infested with 100 melon aphids from a stock colony by pinning the cotyledon against an aphid-infested squash cotyledon from the colony and allowing the aphids to transfer. After transfer, the colony leaf is removed. Forty-eight hours later, the infested leaves are sprayed to wetting with formulations containing graded amounts of the insecticide using a DeVilbiss atomizer at 10 psi held at 12-15 inches from the plant. Controls consist of two infested, unsprayed squash plants and two infested plants sprayed to wetting with a formulation containing 100 ppm malathion as a reference standard. The mortality is estimated 24 hours after spraying by observation using a 10 power dissecting microscope. The same rating scale is used as before.

[3] = tested on: Boll Weevil; assay: Boll Weevil Test; format: in vivo, Anthonomus grandis (Coleoptera); settings: 48 h
Excerpt: The procedure is identical to that employed for the Mexican bean beetle and the Southern armyworm, except that 10 adult boll weevils are placed on cotton leaves that have been dipped into formulations of the test compounds. The same rating scale is used.

[4] = tested on: Milkweed Beetle; assay: Field trial (first summer), contact; format: in vivo; settings: 125 ppm
Excerpt: (§1) Infested plants are placed in 6 oz. prescription bottles filled with water to keep them from wilting. Cellucotton is wrapped around the plant stem and squeezed into the bottle neck to prevent the insects from drowning.
(§2) A DeVilbiss Special Atomizer (5004) is used at 10 psi to spray the test plant with different concentrations of compounds. The atomizer is held at arm's length to prevent blowing the insects off the host plant. After treating, the bottles are placed on a table covered with brown wrapping paper to catch the dead insects as they drop from the plant. The plants are spaced so the leaves or plants are not touching one another.
(§3) The results are read at 24, 48, and 72 hours when applicable. The rating scale is 0 to 9 where 0 = 0-10 percent and 9 = 91-100 percent mortality.
(§4) During the previous summer similar field trials were conducted employing the same tests as heretofore but with some additional species of insects not included in the later tests. The results listed below are for tests in which an insect mortality was established by a given application route and at a given concentration in a particular test. The same 0 - 9 scoring system is used as is the designation of compounds by alphabetical symbols.

[5] = tested on: Picnic Beetle; assay: Field trial (first summer), contact; format: in vivo; settings: 250 ppm
Excerpt: as §1, §2, §3, §4

[6] = tested on: Southern Armyworm; assay: Southern Armyworm Test; format: in vivo, Prodenia eridania (Lepidoptera); settings: 48 h
Procedure: Ten uniform Southern armyworm larvae about 1-1.5 cm. in length, grown on Henderson lima beans, are placed on excized bean leaves in petri dishes. The bean leaves are obtained and sprayed with the insecticide in the same way as are the snap bean leaves in the Mexican bean beetle test. The reference standards in this instance are leaves sprayed with 5 ml. 100 ppm DDT solution. Mortality counts are made 48 hours after spraying and again moribund larvae are counted as dead. Missing larvae which have probably been eaten are considered alive. The same rating scale is used as in the Mexican bean beetle test.

[7] = tested on: House Fly; assay: Housefly (Contact) Test; format: in vivo, Musca domestica (Diptera); settings: 24 h
[8] = tested on: House Fly; assay: Housefly (Stomach) Test; format: in vivo, Musca domestica (Diptera); settings: 24 h
Outline: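 Ten chilled house flies per covered dish were given sugar cubes treated with 0.2 ml of insecticide formulation at a specified level, one hour after leaving the chill room. Water-treated and 500 ppm malathion-treated cubes served as controls; mortality scored at 24 h on a rating scale.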

[9] = tested on: Tarnished Plant Bug Adults; assay: Field trial, stomach poison test; format: in vivo; set-up: key: mortality rating on a 0 to 9 scale
Outline: (§5)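 Insects, five or ten per dish, are fed air-dried leaves that were dipped in or sprayed with the compound at two or three rates. Mortality is rated 0–9 at 24, 48 and 72 h and averaged per concentration.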

[10] = tested on: Unidentified Green Leafhopper; assay: Field trial, stomach poison test; format: in vivo; set-up: key: mortality rating on a 0 to 9 scale
Outline: as §5

[11] = tested on: Asparagus Beetles Adults; assay: Field trial, contact poison test; format: in vivo
Outline: (§6)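 Read-out: mortality rating 0–9 (0 = 0-10 percent, 9 = 91-100 percent) at 24/48/72 h, averaged per concentration. Insects were sprayed on potted-in-water host plants using an atomizer at 10 psi, with dead insects caught on paper below.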

[12] = tested on: Alfalfa Weevil Larvae; assay: Field trial, contact poison test; format: in vivo
Outline: as §6

[13] = tested on: Potato Flea Beetle Adults; assay: Field trial, contact poison test; format: in vivo
Outline: as §6

## mixture of methyl 2,6-bis(trifluoromethyl)-4-nitro-1-benzimidazolecarboxylate and methyl 2,5-bis(trifluoromethyl)-7-nitro-1-benzimidazolecarboxylate
[1]; .078125 μg/μl
  insect mortality rating: 9 (91-100 percent mortality)
[2]; 25 ppm
  mortality rating: 0 (0-10)
[2]; 50 ppm
  mortality rating: 2 (21-30)
[2]; 100 ppm
  mortality rating: 4 (41-50)
[2]; 250 ppm
  mortality rating: 9 (91-100)
[2]; 500 ppm
  mortality rating: 9 (91-100)
[2]; 1000 ppm
  mortality rating: 9 (91-100)
[3]; 5 ppm
  mortality rating: 0 (0-10)
[3]; 10 ppm
  mortality rating: 5.5
[3]; 25 ppm
  mortality rating: 8.5
[3]; 50 ppm
  mortality rating: 9 (91-100)
[3]; 100 ppm
  mortality rating: 9 (91-100)
[3]; 250 ppm
  mortality rating: 9 (91-100)
[3]; 500 ppm
  mortality rating: 9 (91-100)
[3]; 1000 ppm
  mortality rating: 9 (91-100)
[4]
  insect mortality rating: 9 (91-100 percent mortality)
[5]
  insect mortality rating: 9 (91-100 percent mortality)
[6]; 1000 ppm
  mortality rating: 1 (11-20)
[7]; 10 ppm
  mortality rating: 0 (0-10)
[7]; 25 ppm
  mortality rating: 0 (0-10)
[7]; 50 ppm
  mortality rating: 9 (91-100)
[7]; 100 ppm
  mortality rating: 9 (91-100)
[7]; 250 ppm
  mortality rating: 9 (91-100)
[7]; 500 ppm
  mortality rating: 9 (91-100)
[7]; 1000 ppm
  mortality rating: 9 (91-100)
[8]; 250 ppm
  mortality rating: 2 (21-30)
[8]; 500 ppm
  mortality rating: 5.5
[8]; 1000 ppm
  mortality rating: 8.5
[9]; 25 ppm
  average mortality rating: 3
[9]; 50 ppm
  average mortality rating: 7 and 4
[10]; 10 ppm
  average mortality rating: 5
[10]; 25 ppm
  average mortality rating: 4
[10]; 50 ppm
  average mortality rating: 6
[11]; 10 ppm
  average mortality rating: 3
[11]; 25 ppm
  average mortality rating: 8
[11]; 50 ppm
  average mortality rating: 9 (91-100 percent mortality)
[12]; 500 ppm
  average mortality rating: 2
[12]; 750 ppm
  average mortality rating: 6
[12]; 1000 ppm
  average mortality rating: 7

## O=[N+]([O-])c1cc(C(F)(F)F)cc2nc(C(F)(F)F)[nH]c12 [A, 2,6-bis(trifluoromethyl)-4-nitrobenzimidazole]
[1]; .078125 μg/μl
  insect mortality rating: 9 (91-100 percent mortality)
[3]; 5 ppm
  mortality rating: 7.5
[3]; 10 ppm
  mortality rating: 6.7
[3]; 25 ppm
  mortality rating: 8.8
[3]; 50 ppm
  mortality rating: 8.5
[4]
  insect mortality rating: 9 (91-100 percent mortality)
[5]
  insect mortality rating: 9 (91-100 percent mortality)
[9]; 10 ppm
  average mortality rating: 3
[9]; 25 ppm
  average mortality rating: 1
[9]; 50 ppm
  average mortality rating: 2
[10]; 10 ppm
  average mortality rating: 4
[10]; 25 ppm
  average mortality rating: 2
[10]; 50 ppm
  average mortality rating: 6
[13]; 10 ppm
  average mortality rating: 9 (91-100 percent mortality)
[13]; 25 ppm
  average mortality rating: 9 (91-100 percent mortality)
[13]; 50 ppm
  average mortality rating: 8
[13]; 100 ppm
  average mortality rating: 8
[13]; 250 ppm
  average mortality rating: 9 (91-100 percent mortality)
[11]; 10 ppm
  average mortality rating: 7
[11]; 25 ppm
  average mortality rating: 7
[11]; 50 ppm
  average mortality rating: 8
[12]; 500 ppm
  average mortality rating: 3
[12]; 750 ppm
  average mortality rating: 3
[12]; 1000 ppm
  average mortality rating: 5

## CCCCCCOC(=O)n1c(C(F)(F)F)nc2c([N+](=O)[O-])cc(C(F)(F)F)cc21 [E, n-hexyl 2,6-bis(trifluoromethyl)-4-nitro-1-benzimidazolecarboxylate]
[1]; .15625 μg/μl
  insect mortality rating: 9 (91-100 percent mortality)
[2]; 5 ppm
  mortality rating: 1.5
[2]; 100 ppm
  mortality rating: 9.5
[3]; 25 ppm
  mortality rating: 6.5
[4]
  insect mortality rating: 9 (91-100 percent mortality)
[5]
  insect mortality rating: 9 (91-100 percent mortality)
[6]; 500 ppm
  mortality rating: 5.0
[6]; 1000 ppm
  mortality rating: 7.5
[7]; 10 ppm
  mortality rating: 4.5
[7]; 50 ppm
  mortality rating: 1.5
[9]; 10 ppm
  average mortality rating: 1
[9]; 25 ppm
  average mortality rating: 2
[9]; 50 ppm
  average mortality rating: 3
[10]; 10 ppm
  average mortality rating: 4
[10]; 25 ppm
  average mortality rating: 7
[10]; 50 ppm
  average mortality rating: 7
[13]; 10 ppm
  average mortality rating: 6
[13]; 25 ppm
  average mortality rating: 9 (91-100 percent mortality)
[13]; 50 ppm
  average mortality rating: 9 (91-100 percent mortality)
[13]; 100 ppm
  average mortality rating: 9 (91-100 percent mortality)
[13]; 250 ppm
  average mortality rating: 9 (91-100 percent mortality)
[11]; 10 ppm
  average mortality rating: 7
[11]; 25 ppm
  average mortality rating: 8
[11]; 50 ppm
  average mortality rating: 9 (91-100 percent mortality)
[12]; 500 ppm
  average mortality rating: 4
[12]; 750 ppm
  average mortality rating: 2
[12]; 1000 ppm
  average mortality rating: 4
